According to patent US9492460B2, “Carbazole compounds useful as bromodomain inhibitors” (Bristol-Myers Squibb Company, priority 2013, dated 2016):

target: T1, bromodomain BRD4 (44-168), BRD4 (333-460), and BRD4 (1-477 or 44-460) (Homo sapiens, UniProt O60885); assay: Time Resolved Fluorescence Resonance Energy Transfer (TR-FRET) binding assay; conditions: one of the FRET assays described
T1 construct: BRD4(44-168), BRD4(333-460), BRD4(44-460), BRD4(1-477), O60885-1; fused on or other part: N-terminal BirA biotinylation motif, biotinylated; The TVMV-cleavable His6 tag is removed, except in some BRD4(44-460) runs detected with anti-His terbium cryptate

Row | IC50 | Compound
1 | < 50 nM | Cc1noc(C)c1-c1cc(C(N)=O)c2c3ccc(C(C)(C)O)c(F)c3n(C(c3ccc(F)cc3)C3CCOCC3)c2c1 (single isomer, unassigned) [Example 223, 2-(Dimethyl-1,2-oxazol-4-yl)-8-fluoro-9-[(4-fluorophenyl)(oxan-4-yl)methyl]-7-(2-hydroxypropan-2-yl)-9H-carbazole-4-carboxamide]
2 | < 50 nM | Cc1noc(C)c1-c1cc(C(N)=O)c2c3cc(N4CC(C)(C)COC4=O)ccc3n(Cc3ccc(F)cc3)c2c1 [Example 153, 2-(3,5-dimethyl-4-isoxazolyl)-6-(5,5-dimethyl-2-oxo-1,3-oxazinan-3-yl)-9-(4-fluorobenzyl)-9H-carbazole-4-carboxamide]
3 | < 50 nM | Cc1noc(C)c1-c1cc(C(N)=O)c2c3cc(NC(=O)C4CCCC4)ccc3n(Cc3ccccc3)c2c1 [Example 149, 9-benzyl-6-((cyclopentylcarbonyl)amino)-2-(3,5-dimethyl-4-isoxazolyl)-9H-carbazole-4-carboxamide]
4 | < 50 nM | Cc1noc(C)c1-c1cc(C(N)=O)c2c3cc(C(=O)N4CCOC(C)C4)ccc3n(Cc3ccccc3)c2c1 (centres unmarked) [Example 55]
5 | < 50 nM | Cc1noc(C)c1-c1cc(C(N)=O)c2c3cc(C(=O)N4CCC(F)C4)ccc3n(C(C)c3ccccc3)c2c1 (centres unmarked) [Example 84]
6 | < 500 nM | Cc1noc(C)c1-c1cc(C(=O)NCC(C)C)c2c3cc(C(=O)N4CC(F)C4)ccc3n(Cc3ccc(F)cc3)c2c1 [Example 128, 2-(3,5-dimethyl-4-isoxazolyl)-6-((3-fluoro-1-azetidinyl)carbonyl)-9-(4-fluorobenzyl)-N-isobutyl-9H-carbazole-4-carboxamide]
7 | < 50 nM | CNC(=O)c1cc(-c2c(C)noc2C)cc2c1c1cc(C(=O)N3CC(F)C3)ccc1n2CC1CC1 [Example 115]
8 | < 50 nM | Cc1noc(C)c1-c1cc(C(=O)NC2CC2)c2c3cc(C(=O)N4CC(F)C4)ccc3n(Cc3ccc(F)cc3)c2c1 [Example 125, N-cyclopropyl-2-(3,5-dimethyl-4-isoxazolyl)-6-((3-fluoro-1-azetidinyl)carbonyl)-9-(4-fluorobenzyl)-9H-carbazole-4-carboxamide]
9 | < 50 nM | COc1ccc2c(c1)c1c(C(N)=O)cc(-c3c(C)noc3C)cc1n2Cc1ccccc1 [Example 177, 9-benzyl-2-(3,5-dimethyl-4-isoxazolyl)-6-methoxy-9H-carbazole-4-carboxamide]
10 | < 500 nM | Cc1noc(C)c1-c1cc(C(N)=O)c2c(c1)[nH]c1ccc(N3CCCOC3=O)cc12 [Example 150, 2-(3,5-dimethyl-4-isoxazolyl)-6-(2-oxo-1,3-oxazinan-3-yl)-9H-carbazole-4-carboxamide]
11 | < 500 nM | COc1cccc(Cn2c3ccc(C(=O)N4CC(C)OC(C)C4)cc3c3ccc(-c4c(C)noc4C)cc32)c1 (centres unmarked) [Example 14]
12 | < 500 nM | Cc1noc(C)c1-c1cc(C(=O)N(C)C)c2c3cc(C(=O)N4C[C@@H](C)O[C@@H](C)C4)ccc3n(Cc3ccccc3)c2c1 [Example 118, 9-benzyl-2-(3,5-dimethylisoxazol-4-yl)-6-(cis-2,6-dimethylmorpholine-4-carbonyl)-N,N-dimethyl-9H-carbazole-4-carboxamide]
13 | < 50 nM | COC(=O)c1ccc2c3c(C(N)=O)cc(-c4c(C)noc4C)cc3n(C(c3ccccc3)c3ccccc3)c2c1 [Example 192, Methyl 5-carbamoyl-7-(3,5-dimethyl-4-isoxazolyl)-9-(diphenylmethyl)-9H-carbazole-2-carboxylate]
14 | < 500 nM | CNC(=O)c1cc(-c2c(C)noc2C)cc2[nH]c3ccc(C(=O)N4CC(F)(F)C4)cc3c12 [Example 99, 6-((3,3-difluoro-1-azetidinyl)carbonyl)-2-(3,5-dimethyl-4-isoxazolyl)-N-methyl-9H-carbazole-4-carboxamide]
15 | < 50 nM | Cc1noc(C)c1-c1cc(C(N)=O)c2c3ccc(C(=O)N(C)C)cc3n(C(c3ccccc3)c3ccccc3)c2c1 [Example 195, 7-(3,5-Dimethyl-4-isoxazolyl)-9-(diphenylmethyl)-N˜2˜,N˜2˜-dimethyl-9H-carbazole-2,5-dicarboxamide]
16 | < 50 nM | Cc1noc(C)c1-c1cc(C(N)=O)c2c3cc(C(=O)N4CC[C@@H](F)C4)ccc3n(Cc3ccccc3)c2c1 [Example 60]
17 | < 50 nM | CC(=O)Nc1ccc2c(c1)c1c(C(N)=O)cc(-c3c(C)noc3C)cc1n2Cc1ccccc1 [Example 142, 6-acetamido-9-benzyl-2-(3,5-dimethyl-4-isoxazolyl)-9H-carbazole-4-carboxamide]
18 | < 50 nM | Cc1noc(C)c1-c1cc(C#N)c2c3ccc(C(=O)O)cc3n(C(c3ccccc3)c3ccccc3)c2c1 [Example 193, 5-Cyano-7-(3,5-dimethyl-4-isoxazolyl)-9-(diphenylmethyl)-9H-carbazole-2-carboxylic acid]
19 | < 50 nM | Cc1noc(C)c1-c1cc(C(N)=O)c2c3cc(N4CCOC4=O)ccc3n(Cc3ccccc3)c2c1 [Example 161, 9-benzyl-2-(3,5-dimethyl-4-isoxazolyl)-6-(2-oxo-1,3-oxazolidin-3-yl)-9H-carbazole-4-carboxamide]
20 | < 500 nM | Cc1oncc1-c1cc(C(N)=O)c2c3cc(C(=O)N4CCOCC4)ccc3n(Cc3ccc(F)cc3)c2c1 [Example 123, 9-(4-fluorobenzyl)-2-(5-methylisoxazol-4-yl)-6-(morpholine-4-carbonyl)-9H-carbazole-4-carboxamide]
21 | < 50 nM | COC(=O)Nc1ccc2c(c1)c1c(C(N)=O)cc(-c3c(C)noc3C)cc1n2Cc1ccccc1 [Example 144, methyl (9-benzyl-5-carbamoyl-7-(3,5-dimethyl-4-isoxazolyl)-9H-carbazol-3-yl)carbamate]

Row | IC50 | Compound
22 | < 500 nM | CCCn1c2ccc(C(=O)N3CC(C)OC(C)C3)cc2c2ccc(-c3c(C)noc3C)cc21 (centres unmarked) [Example 3]
23 | < 50 nM | Cc1noc(C)c1-c1cc(C(N)=O)c2c3cc(C(=O)N4CC(F)C4)ccc3n(CC3CC3)c2c1 [Example 92]
24 | < 500 nM | CNC(=O)c1cc(-c2c(C)noc2C)cc2[nH]c3ccc(C(=O)N4CC(F)C4)cc3c12 [Example 101, 2-(3,5-dimethyl-4-isoxazolyl)-6-((3-fluoro-1-azetidinyl)carbonyl)-N-methyl-9H-carbazole-4-carboxamide]
25 | < 50 nM | Cc1noc(C)c1-c1cc(C(N)=O)c2c3cc(C(=O)N4C[C@@H](C)O[C@@H](C)C4)ccc3n(CC3CCC3)c2c1 [Example 26, 9-(cyclobutylmethyl)-2-(3,5-dimethyl-4-isoxazolyl)-6-((cis-2,6-dimethyl-4-morpholinyl)carbonyl)-9H-carbazole-4-carboxamide]
26 | < 50 nM | Cc1noc(C)c1-c1cc(C(N)=O)c2c3cc(C(=O)N4CC(C)OC(C)C4)ccc3n(Cc3ccccc3)c2c1 (centres unmarked) [Example 69]
27 | < 50 nM | Cc1noc(C)c1-c1cc(C(N)=O)c2c3cc(C(=O)N4CC(C)OC(C)C4)ccc3n(Cc3cccc(F)c3F)c2c1 (centres unmarked) [Example 41]
28 | < 7500 nM | Cc1noc(C)c1-c1cc(C(N)=O)c2c3cc(C(=O)N4CCOCC4(C)C)ccc3n(Cc3ccccc3)c2c1 [Example 49]
29 | < 50 nM | Cc1csc(Cn2c3ccc(C(=O)N4CC(C)OC(C)C4)cc3c3c(C(N)=O)cc(-c4c(C)noc4C)cc32)n1 (centres unmarked) [Example 28]
30 | < 50 nM | Cc1nnn(C)c1-c1cc(C(N)=O)c2c3ccc(C(C)(C)O)cc3n(C(c3ccccc3)C3CCOCC3)c2c1 (single isomer, unassigned) [Example 232, 2-(1,4-Dimethyl-1H-1,2,3-triazol-5-yl)-7-(2-hydroxypropan-2-yl)-9-(phenyl(tetrahydro-2H-pyran-4-yl)methyl)-9H-carbazole-4-carboxamide]
31 | < 50 nM | Cc1noc(C)c1-c1cc(C(N)=O)c2c3cc(C(=O)NCCN4CCOCC4)ccc3n(Cc3ccccc3)c2c1 [Example 76]
32 | < 7500 nM | CNC(=O)c1cc(-c2c(C)noc2C)cc2c1c1cc(N3CCCOC3=O)ccc1n2C(C)c1ccccc1 (centres unmarked) [Example 173, 2-(3,5-dimethyl-4-isoxazolyl)-N-methyl-6-(2-oxo-1,3-oxazinan-3-yl)-9-(1-phenylethyl)-9H-carbazole-4-carboxamide]
33 | < 50 nM | CNC(=O)c1cc(-c2c(C)noc2C)cc2c1c1cc(N3CCCOC3=O)ccc1n2Cc1ccc(Cl)cc1 [Example 170, 9-(4-chlorobenzyl)-2-(3,5-dimethyl-4-isoxazolyl)-N-methyl-6-(2-oxo-1,3-oxazinan-3-yl)-9H-carbazole-4-carboxamide]
34 | < 50 nM | COC1CN(C(=O)c2ccc3c(c2)c2c(C(N)=O)cc(-c4c(C)noc4C)cc2n3Cc2ccccc2)C1 [Example 52]
35 | < 500 nM | Cc1noc(C)c1-c1cc(C(N)=O)c2c3cc(N4CCOC4=O)ccc3n(Cc3ccc(Cl)c(F)c3)c2c1 [Example 164, 9-(4-chloro-3-fluorobenzyl)-2-(3,5-dimethyl-4-isoxazolyl)-6-(2-oxo-1,3-oxazolidin-3-yl)-9H-carbazole-4-carboxamide]
36 | < 500 nM | Cc1noc(C)c1-c1ccc2c3cc(C(=O)N4CC(C)OC(C)C4)ccc3n(CC(F)F)c2c1 (centres unmarked) [Example 7]
37 | < 500 nM | COCCn1c2ccc(C(=O)N3CC(C)OC(C)C3)cc2c2ccc(-c3c(C)noc3C)cc21 (centres unmarked) [Example 8]
38 | < 500 nM | Cc1noc(C)c1-c1ccc2c3cc(C(=O)N4CC(C)OC(C)C4)ccc3n(CC(C)C)c2c1 (centres unmarked) [Example 4]
39 | < 50 nM | Cc1noc(C)c1-c1cc(C(N)=O)c2c3cc(N4CCCOC4=O)ccc3n(Cc3cc(F)ccc3F)c2c1 [Example 159, 9-(2,5-difluorobenzyl)-2-(3,5-dimethyl-4-isoxazolyl)-6-(2-oxo-1,3-oxazinan-3-yl)-9H-carbazole-4-carboxamide]
40 | < 50 nM | Cc1noc(C)c1-c1cc(C(N)=O)c2c3ccc(C(C)C)cc3n([C@H](c3ccccc3)C3CCOCC3)c2c1 [Example 229, 2-(Dimethyl-1,2-oxazol-4-yl)-9-[(S)-oxan-4-yl(phenyl)methyl]-7-(propan-2-yl)-9H-carbazole-4-carboxamide]
41 | < 50 nM | Cc1noc(C)c1-c1ccc2c3cc(C(=O)N4CC(C)OC(C)C4)ccc3n(Cc3ccccc3)c2c1 (centres unmarked) [Example 9]
